Source: patent US20150315188A1, “COMPOUNDS AND METHODS FOR TREATMENT OF HYPERTENSION” (MEDIVATION TECHNOLOGIES, INC., priority 2012, published 2015)

Legend:
[1] = Epimerization of chiral compounds in simulated gastric fluid (SGF); type: physicochemical; details: 24 h
Protocol: Epimerization Method for Studying Chiral Compounds in Simulated Gastric Fluid (SGF) and Stimulated Intestinal Fluid (SIF)
A measured quantity of sample was dissolved in SGF or SIF at the concentration of 1 mg/mL in a volumetric flask and appropriate number of aliquots of this solution were transferred to incubation vials as per the given time points. For the sample of zero hour, the appropriate volume of saturated Bicarbonate solution was added immediately to the sample, and was stirred for 5-10 mins. The compound was extracted in a suitable solvent (e.g. Ethyl acetate), decanting the organic layer. The organic solvent was evaporated, and the residue was dissolved in an appropriate solvent (Methanol/Ethanol), filtered through a 0.22 μm membrane filter and analyzed by chiral HPLC. The remaining aliquots were incubated at different temperatures i.e. 25° C. and 37° C. in a water bath as per the given time points. The respective samples were retrieved from the incubator/Water bath at different time intervals as per the given time points: 90 mins, 4 h, 6 h, 12 h and 24 h, and the same procedure for sample preparation was followed for the zero hour sample.
All the chromatograms were obtained at the specified wavelength, compiled and the curves between Time Vs % Area were plotted.

[2] = target: T1, rat adrenergic α1B receptor (Rattus norvegicus, UniProt P15823); assay: Radioligand binding, adrenergic α1B (Protocol Group A); details: 0.1 μM compound, [3H]Prazosin, read-out: percent inhibition of specific binding, Adrenergic α1B
T1 construct: rat adrenergic α1B receptor obtained from Wistar Rat liver; from tissue; host or cells: Wistar rat liver
T1 sequence (P15823 1-515): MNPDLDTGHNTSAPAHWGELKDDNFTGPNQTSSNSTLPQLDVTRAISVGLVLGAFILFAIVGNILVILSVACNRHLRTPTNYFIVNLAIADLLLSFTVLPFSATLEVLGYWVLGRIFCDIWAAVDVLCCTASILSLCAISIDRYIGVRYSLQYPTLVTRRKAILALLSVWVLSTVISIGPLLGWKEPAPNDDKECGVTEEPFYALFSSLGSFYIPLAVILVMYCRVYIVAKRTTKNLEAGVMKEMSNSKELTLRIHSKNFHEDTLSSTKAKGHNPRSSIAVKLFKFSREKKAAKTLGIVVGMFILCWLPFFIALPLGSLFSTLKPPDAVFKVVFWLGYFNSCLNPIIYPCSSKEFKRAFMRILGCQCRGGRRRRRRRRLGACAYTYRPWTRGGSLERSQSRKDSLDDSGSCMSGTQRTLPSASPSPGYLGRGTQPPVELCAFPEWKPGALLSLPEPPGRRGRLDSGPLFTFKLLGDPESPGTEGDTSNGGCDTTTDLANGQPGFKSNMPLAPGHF
Protocol: To evaluate in radioligand binding assays the activity of compounds of the invention, rat adrenergic α1B receptor obtained from Wistar Rat liver (Garcia-S'ainz, J. et al, Biochem. Biophys. Res. Commun. 186:760, 1992; Michel, A. et al, Br. J. Pharmacol. 98:883, 1989) in a modified Tris-HCl buffer (50 mM Tris-HCl buffer, pH 7.4, 0.5 mM EDTA) was used. Compounds of the invention were incubated with 0.25 nM [^3H]Prazosin for 60 min at 25° C. Non-specific binding was estimated in the presence of 10 μM phentolamine. Receptor proteins were filtered and washed, the filters were then counted to determine [^3H]Prazosin specifically bound. Compounds were screened at 1 μM or lower, using 1% DMSO as vehicle. Compounds of the invention were tested in this biochemical assay and percent inhibition of specific binding was determined. Biochemical assay results are presented as the percent inhibition of specific binding in Table B1a.

[3] = target: T2, Human adrenergic α2A receptor (Homo sapiens, UniProt P08913); assay: Radioligand binding, adrenergic α2A (Protocol Group A); design: expressed in transfected cells; host or cells: insect Sf9 cells; details: 0.1 μM compound, [3H]MK-912, read-out: percent inhibition of specific binding, Adrenergic α2A
T2 sequence (P08913 1-465): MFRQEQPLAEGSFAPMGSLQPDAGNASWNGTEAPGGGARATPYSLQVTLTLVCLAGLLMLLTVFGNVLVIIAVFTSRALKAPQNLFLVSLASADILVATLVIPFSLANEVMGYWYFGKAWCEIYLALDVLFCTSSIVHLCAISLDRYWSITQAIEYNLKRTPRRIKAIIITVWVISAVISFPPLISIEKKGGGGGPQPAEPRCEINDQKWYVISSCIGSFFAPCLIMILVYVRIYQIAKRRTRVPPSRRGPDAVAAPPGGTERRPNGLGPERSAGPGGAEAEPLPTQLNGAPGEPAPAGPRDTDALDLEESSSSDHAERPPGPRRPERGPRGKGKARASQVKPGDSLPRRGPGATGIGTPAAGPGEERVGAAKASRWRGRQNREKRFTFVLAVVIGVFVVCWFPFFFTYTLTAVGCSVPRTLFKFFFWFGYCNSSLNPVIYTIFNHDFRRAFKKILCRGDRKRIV
Protocol: To evaluate in radioligand binding assays the activity of compounds of the invention, human recombinant adrenergic α2A receptor expressed in insect Sf9 cells (Uhlen, S. et al, J. Pharmacol. Exp. Ther. 271:1558, 1994) in a modified Tris-HCl buffer (50 mM Tris-HCl, pH 7.4, 12.5 mM MgCl2, 2 mM EDTA) was used. Compounds of invention were incubated with 1 nM [^3H]MK-912 for 60 min at 25° C. MK912 is (2S-trans)-1,3,4,5′,6,6′,7,12b-octahydro-1′,3′-dimethyl-spiro[2H-benzofuro[2,3-a]quinolizine-2,4′(1′H)-pyrimidin]-2′(3′H)-one hydrochloride. Non-specific binding was estimated in the presence of 10 μM WB-4101 (2-(2,6-Dimethoxyphenoxyethyl)aminomethyl-1,4-benzodioxane hydrochloride). Receptor proteins were filtered and washed, the filters were then counted to determine [^3H]MK-912 specifically bound. Compounds were screened at 1 μM or lower, using 1% DMSO as vehicle. Compounds of the invention were tested in this biochemical assay and percent inhibition of specific binding was determined. Biochemical assay results are presented as the percent inhibition of specific binding in Table B1a.

epimerization ([1]; 25° C.)	epimerization ([1]; 37° C.)	inhibition at 0.1 µM [2]	inhibition at 0.1 µM [3]	SMILES
up to 41.29%	50.13%			Cc1ccc2c(c1)c1c(n2CC(O)c2ccncc2)CCN2CCCC12 (single isomer, unassigned) [Compound No. 178d]
		35%	28%	Cc1ccc2c(c1)c1c(n2CC(OC(=O)N2CCCC2)c2ccncc2)CCN(C)C1 (single isomer, unassigned) [4b]
		91%	59%	Cc1ccc2c(c1)c1c(n2CC(C)(O)c2ccc(F)nc2)CCN2CCCC12 (single isomer, unassigned) [6a]
2%	21.39%			Cc1cc(F)c2c(c1)c1c(n2CC(C)(O)c2cccnc2)CCN2CCCC12 (centres unmarked) [Compound No. 79a]
